The results in this text go back to patent publication US7214675B2, “Urea substituted imidazoquinoline ethers” (3M Innovative Properties Company, priority 2000, dated 2007).

For assay [1], the system named is interferon (α) induction in human peripheral blood mononuclear cells (PBMC). As to the kind of experiment: Cytokine induction in human cells: interferon (α) secreted by PBMC, ELISA. Conditions: lowest concentration found to induce interferon, incubated 18 to 24 hours at 37° C. The assay is classed as cell-based. More on the design: key to Lowest Effective Concentration (μM) Interferon: A “*” indicates that no induction was seen at any of the tested concentrations; generally the highest concentration tested was 10 or 30 μM. From the text: (§1) An in vitro human blood cell system is used to assess cytokine induction. Activity is based on the measurement of interferon and tumor necrosis factor (α) (IFN and TNF, respectively) secreted into culture media as described by Testerman et. al. In “Cytokine Induction by the Immunomodulators Imiquimod and S-27609”, Journal of Leukocyte Biology, 58, 365–372 (September, 1995).
(§2) Whole blood from healthy human donors is collected by venipuncture into EDTA vacutainer tubes. Peripheral blood mononuclear cells (PBMC) are separated from whole blood by density gradient centrifugation using Histopaque®-1077. Blood is diluted 1:1 with Dulbecco's Phosphate Buffered Saline (DPBS) or Hank's Balanced Salts Solution (HBSS). The PBMC layer is collected and washed twice with DPBS or HBSS and resuspended at 4×10^6 cells/mL in RPMI complete. The PBMC suspension is added to 48 well flat bottom sterile tissue culture plates (Costar, Cambridge, Mass. or Becton Dickinson Labware, Lincoln Park, N.J.) containing an equal volume of RPMI complete media containing test compound.
(§3) The compounds are solubilized in dimethyl sulfoxide (DMSO). The DMSO concentration should not exceed a final concentration of 1% for addition to the culture wells. The compounds are generally tested at concentrations ranging from 30–0.014 μM.
(§4) The solution of test compound is added at 60 μM to the first well containing RPMI complete and serial 3 fold dilutions are made in the wells. The PBMC suspension is then added to the wells in an equal volume, bringing the test compound concentrations to the desired range (30–0.014 μM). The final concentration of PBMC suspension is 2×10^6 cells/mL. The plates are covered with sterile plastic lids, mixed gently and then incubated for 18 to 24 hours at 37° C. in a 5% carbon dioxide atmosphere.
(§5) Following incubation the plates are centrifuged for 10 minutes at 1000 rpm (˜200×g) at 4° C. The cell-free culture supernatant is removed with a sterile polypropylene pipet and transferred to sterile polypropylene tubes. Samples are maintained at −30 to −70° C. until analysis. The samples are analyzed for interferon (α) by ELISA and for tumor necrosis factor (α) by ELISA or IGEN Assay
Interferon (α) concentration is determined by ELISA using a Human Multi-Species kit from PBL Biomedical Laboratories, New Brunswick, N.J. Results are expressed in pg/mL.
(§6) The table below lists the lowest concentration found to induce interferon and the lowest concentration found to induce tumor necrosis factor for each compound.
A general note: ELISA stands for enzyme-linked immunosorbent assay.

Assay [2] has as its system tumor necrosis factor (α) induction in human peripheral blood mononuclear cells (PBMC). Put plainly: Cytokine induction in human cells: tumor necrosis factor (α) secreted by PBMC, ELISA or IGEN assay. The class given is cell-based. More on the design: key to Lowest Effective Concentration (μM) Tumor Necrosis Factor: A “*” indicates that no induction was seen at any of the tested concentrations; generally the highest concentration tested was 10 or 30 μM. Conditions: lowest concentration found to induce tumor necrosis factor, incubated 18 to 24 hours at 37° C.
Source text: as §1, §2, §3, §4, §5
Tumor necrosis factor (α) (TNF) concentration is determined using ELISA kits available from Biosource International, Camarillo, Calif. Alternately, the TNF concentration can be determined by Origen® M-Series Immunoassay and read on an IGEN M-8 analyzer from IGEN International, Gaithersburg, Md. The immunoassay uses a human TNF capture and detection antibody pair from Biosource International, Camarillo, Calif. Results are expressed in pg/mL.
as §6

On to `CCCCc1nc2c(N)nc3ccccc3c2n1CCOCCNC(=O)NC(C)C` [Example 7], for which the minimal effective concentration – broadly, the smallest amount tested that counted as effective – in assay [1] stood at 0.0001 µM; in assay [2] it was 10 µM.

As for `CCCCc1nc2c(N)nc3ccccc3c2n1CCOCCNC(=O)NC(C)(C)C` [Example 8], the minimal effective concentration was determined as 0.0001 µM in assay [1] and 10 µM in assay [2].

For `CCCCNC(=O)NCCOCCn1c(CCCC)nc2c(N)nc3ccccc3c21` [Example 9], the minimal effective concentration in assay [1] was determined as 0.0001 µM; in assay [2], 1 µM.

As to `CCCCc1nc2c(N)nc3ccccc3c2n1CCOCCNC(=O)Nc1ccccc1` [Example 10], the figures for the minimal effective concentration in assay [1] and in assay [2] were 0.0001 µM and 10 µM, respectively.

As to `CCCCc1nc2c(N)nc3ccccc3c2n1CCOCCNC(=O)N1CCOCC1` [Example 11], the values for the minimal effective concentration in assay [1] and in assay [2] were 0.0001 µM and 0.1 µM, respectively.

`CCCCc1nc2c(N)nc3ccccc3c2n1CCOCCNC(=O)NC1CCCCC1` [Example 12]: the minimal effective concentration in assay [1] came out at 0.0001 µM; in assay [2] it was 1 µM.

As to `CCCCc1nc2c(N)nc3ccccc3c2n1CCOCCNC(=O)Nc1cccc(C#N)c1` [Example 13], the values for the minimal effective concentration in assay [1] and in assay [2] were 0.0001 µM and 1 µM, respectively.

Take `CCCCc1nc2c(N)nc3ccccc3c2n1CCOCCNC(=O)Nc1cccc(OC)c1` [Example 14]: the minimal effective concentration in assay [1] is 0.0001 µM; in assay [2] it was 10 µM.

Turning to `CCCCc1nc2c(N)nc3ccccc3c2n1CCOCCNC(=O)N[C@H]1C[C@@H]1c1ccccc1` [Example 15], the minimal effective concentration is 0.0001 µM in assay [1] and 0.1 µM in assay [2].

For `CCCCc1nc2c(N)nc3ccccc3c2n1CCOCCNC(=O)Nc1ccc(N(C)C)cc1` [Example 16], the figures for the minimal effective concentration in assay [1] and in assay [2] were 0.0001 µM and 10 µM, respectively.

As for `CCCCc1nc2c(N)nc3ccccc3c2n1CCOCCNC(=O)Nc1cccc(SC)c1` [Example 17], the “Lowest Effective Concentration (μM) Interferon” value in assay [1] is reported as “*”. Further, in assay [2], the minimal effective concentration came out at 10 µM.

In assay [1], `CCCCc1nc2c(N)nc3ccccc3c2n1CCOCCNC(=O)Nc1ccc(OC)cc1OC` [Example 18] gave a minimal effective concentration of 1 µM. Also, the “Lowest Effective Concentration (μM) Tumor Necrosis Factor” value in assay [2] was “*”.

For `CCCCc1nc2c(N)nc3ccccc3c2n1CCOCCNC(=O)NS(=O)(=O)c1ccccc1` [Example 19], the values for the minimal effective concentration in assay [1] and in assay [2] were 0.1 µM and 10 µM, respectively.

Turning to `CCCCc1nc2c(N)nc3ccccc3c2n1CCOCCNC(=O)NS(=O)(=O)c1ccc(C)cc1` [Example 20], the minimal effective concentration was 0.01 µM in assay [1] and 10 µM in assay [2].

As to `CCCCc1nc2c(N)nc3ccccc3c2n1CCOCCNC(=O)NS(=O)(=O)c1ccc(Cl)cc1` [Example 21], the minimal effective concentration in assay [1] came to 1 µM; in assay [2], 10 µM.

Take `CCC(COCCC1CCN(C(=O)NC(C)C)CC1)n1cnc2c(N)nc3ccccc3c21` (centres unmarked) [Example 22]: the minimal effective concentration stood at 0.1 µM in assay [1] and 1 µM in assay [2].

In the case of `CCCCNC(=O)N1CCC(CCOCC(CC)n2cnc3c(N)nc4ccccc4c32)CC1` (centres unmarked) [Example 23], the minimal effective concentration in assay [1] and in assay [2] was 1 µM throughout.

As to `CCC(COCCC1CCN(C(=O)Nc2ccccc2)CC1)n1cnc2c(N)nc3ccccc3c21` (centres unmarked) [Example 24], the minimal effective concentration in assay [1] amounted to 0.1 µM; in assay [2], 1 µM.

Take `CCC(COCCC1CCN(C(=O)N2CCOCC2)CC1)n1cnc2c(N)nc3ccccc3c21` (centres unmarked) [Example 25]: the figures for the minimal effective concentration in assay [1] and in assay [2] were 0.1 µM and 1 µM, respectively.

For the compound `CCC(COCCC1CCN(C(=O)NC2CCCCC2)CC1)n1cnc2c(N)nc3ccccc3c21` (centres unmarked) [Example 26], the minimal effective concentration in assay [1] came out at 0.1 µM; in assay [2], 1 µM.

Take `CCC(COCCC1CCN(C(=O)Nc2cccc(C#N)c2)CC1)n1cnc2c(N)nc3ccccc3c21` (centres unmarked) [Example 27]: the results for the minimal effective concentration in assay [1] and in assay [2] were 0.1 µM and 1 µM, respectively.

For `CCC(COCCC1CCN(C(=O)Nc2cccc(OC)c2)CC1)n1cnc2c(N)nc3ccccc3c21` (centres unmarked) [Example 28], the minimal effective concentration was 0.1 µM in assay [1] and 1 µM in assay [2].

Turning to `CCC(COCCC1CCN(C(=O)N[C@@H]2C[C@H]2c2ccccc2)CC1)n1cnc2c(N)nc3ccccc3c21` (some centres unmarked) [Example 29], the minimal effective concentration turned out to be 0.1 µM in assay [1] and 1 µM in assay [2].

Turning to `CCC(COCCC1CCN(C(=O)Nc2cccc(C(C)=O)c2)CC1)n1cnc2c(N)nc3ccccc3c21` (centres unmarked) [Example 30], the minimal effective concentration in assay [1] and in assay [2] was 1 µM in each case.

For the compound `CCC(COCCC1CCN(C(=O)Nc2cccc(SC)c2)CC1)n1cnc2c(N)nc3ccccc3c21` (centres unmarked) [Example 31], the minimal effective concentration in assay [1] turned out to be 1 µM; in assay [2], 10 µM.

With `CCC(COCCC1CCN(C(=O)Nc2ccc(OC)cc2OC)CC1)n1cnc2c(N)nc3ccccc3c21` (centres unmarked) [Example 32], the minimal effective concentration came out at 0.1 µM in assay [1] and 1 µM in assay [2].

For the compound `CCC(COCCC1CCN(C(=O)NS(=O)(=O)c2ccc(C)cc2)CC1)n1cnc2c(N)nc3ccccc3c21` (centres unmarked) [Example 33], the minimal effective concentration amounted to 1 µM in assay [1] and 10 µM in assay [2].

For `CCC(COCCC1CCN(C(=O)NS(=O)(=O)c2ccc(Cl)cc2)CC1)n1cnc2c(N)nc3ccccc3c21` (centres unmarked) [Example 34], the minimal effective concentration worked out at 1 µM in assay [1] and 10 µM in assay [2].

As for `CCC(COCCC1CCN(C(=S)NC(=O)c2ccco2)CC1)n1cnc2c(N)nc3ccccc3c21` (centres unmarked) [Example 35], the minimal effective concentration in assay [1] and in assay [2] was 1 µM each time.

On to `CCC(COCCC1CCN(C(=S)Nc2ccccc2)CC1)n1cnc2c(N)nc3ccccc3c21` (centres unmarked) [Example 36], for which the minimal effective concentration in assay [1] is 0.1 µM. Moreover, the “Lowest Effective Concentration (μM) Tumor Necrosis Factor” value in assay [2] is given as “*”.

Turning to `CC(C)(C)NC(=O)NCCOCCn1cnc2c(N)nc3ccccc3c21` [Example 37], the minimal effective concentration in assay [1] and in assay [2] was 10 µM in each case.

On to `Nc1nc2ccccc2c2c1ncn2CCOCCNC(=O)Nc1ccccc1` [Example 38], for which the minimal effective concentration in assay [1] and in assay [2] was 10 µM in each case.

On to `Nc1nc2ccccc2c2c1ncn2CCOCCNC(=O)NC1CCCCC1` [Example 39], for which the minimal effective concentration in assay [1] and in assay [2] was 10 µM throughout.

`N#Cc1cccc(NC(=O)NCCOCCn2cnc3c(N)nc4ccccc4c32)c1` [Example 40]: the minimal effective concentration in assay [1] and in assay [2] was 10 µM throughout.

Take `COc1cccc(NC(=O)NCCOCCn2cnc3c(N)nc4ccccc4c32)c1` [Example 41]: the minimal effective concentration in assay [1] and in assay [2] was 10 µM each time.

Regarding `Nc1nc2ccccc2c2c1ncn2CCOCCNC(=O)N[C@@H]1C[C@H]1c1ccccc1` [Example 42], the minimal effective concentration in assay [1] came to 10 µM. Also, the “Lowest Effective Concentration (μM) Tumor Necrosis Factor” value in assay [2] is reported as “*”.

For `COc1ccc(NC(=O)NCCOCCn2cnc3c(N)nc4ccccc4c32)c(OC)c1` [Example 43], the minimal effective concentration in assay [1] and in assay [2] was 10 µM each time.
